Assay results reported in PMC5358534, “Optical control of AMPA receptors using a photoswitchable quinoxaline-2,3-dione antagonist” (Chemical Science, 2016).

Key:
GluK2 receptor = target: T1, GluK2 receptor (Rattus norvegicus, UniProt P42260); assay: Xenopus oocyte currents, […] ShuBQX-3 in the dark; […] antagonism at […] glutamate, […] at […] glutamate; type: cell-based; settings: read-out: % antagonism at 5 μM (30 μM glutamate)
T1 construct: gene Grik2; GluK2-containing receptors expressed in Xenopus oocytes

[1] = target: T2, GluA1 (GluA1-containing receptors) (Rattus norvegicus, UniProt P19490); assay: Xenopus oocyte currents, […] kainic acid, […] ShuBQX-3 in the dark ([…] antagonism); type: cell-based
T2 construct: gene Gria1; GluA1-containing receptors expressed in Xenopus oocytes
T2 sequence (P19490 19-907): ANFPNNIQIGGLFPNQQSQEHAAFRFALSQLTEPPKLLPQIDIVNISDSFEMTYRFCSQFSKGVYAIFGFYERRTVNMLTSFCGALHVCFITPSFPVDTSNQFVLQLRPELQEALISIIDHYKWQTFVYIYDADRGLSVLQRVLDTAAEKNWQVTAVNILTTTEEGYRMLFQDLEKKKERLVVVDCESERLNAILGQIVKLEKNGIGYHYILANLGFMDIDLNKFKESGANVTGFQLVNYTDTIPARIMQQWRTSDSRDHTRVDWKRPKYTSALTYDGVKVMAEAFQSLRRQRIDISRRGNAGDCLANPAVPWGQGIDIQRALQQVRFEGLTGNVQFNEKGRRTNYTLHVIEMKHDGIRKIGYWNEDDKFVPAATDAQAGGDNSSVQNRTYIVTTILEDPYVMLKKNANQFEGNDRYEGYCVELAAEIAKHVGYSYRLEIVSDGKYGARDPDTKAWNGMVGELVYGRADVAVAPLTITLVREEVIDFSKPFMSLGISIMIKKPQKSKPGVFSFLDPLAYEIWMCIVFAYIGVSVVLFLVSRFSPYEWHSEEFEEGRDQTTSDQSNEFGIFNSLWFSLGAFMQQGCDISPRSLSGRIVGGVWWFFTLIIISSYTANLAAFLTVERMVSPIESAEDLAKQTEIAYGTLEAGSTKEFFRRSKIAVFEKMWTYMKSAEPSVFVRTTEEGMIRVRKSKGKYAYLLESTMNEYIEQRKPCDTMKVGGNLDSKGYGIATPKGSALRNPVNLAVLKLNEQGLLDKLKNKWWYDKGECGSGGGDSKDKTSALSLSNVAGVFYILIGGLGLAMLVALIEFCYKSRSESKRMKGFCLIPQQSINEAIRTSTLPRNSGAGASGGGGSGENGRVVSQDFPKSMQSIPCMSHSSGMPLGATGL

T1 sequence (P42260 32-908): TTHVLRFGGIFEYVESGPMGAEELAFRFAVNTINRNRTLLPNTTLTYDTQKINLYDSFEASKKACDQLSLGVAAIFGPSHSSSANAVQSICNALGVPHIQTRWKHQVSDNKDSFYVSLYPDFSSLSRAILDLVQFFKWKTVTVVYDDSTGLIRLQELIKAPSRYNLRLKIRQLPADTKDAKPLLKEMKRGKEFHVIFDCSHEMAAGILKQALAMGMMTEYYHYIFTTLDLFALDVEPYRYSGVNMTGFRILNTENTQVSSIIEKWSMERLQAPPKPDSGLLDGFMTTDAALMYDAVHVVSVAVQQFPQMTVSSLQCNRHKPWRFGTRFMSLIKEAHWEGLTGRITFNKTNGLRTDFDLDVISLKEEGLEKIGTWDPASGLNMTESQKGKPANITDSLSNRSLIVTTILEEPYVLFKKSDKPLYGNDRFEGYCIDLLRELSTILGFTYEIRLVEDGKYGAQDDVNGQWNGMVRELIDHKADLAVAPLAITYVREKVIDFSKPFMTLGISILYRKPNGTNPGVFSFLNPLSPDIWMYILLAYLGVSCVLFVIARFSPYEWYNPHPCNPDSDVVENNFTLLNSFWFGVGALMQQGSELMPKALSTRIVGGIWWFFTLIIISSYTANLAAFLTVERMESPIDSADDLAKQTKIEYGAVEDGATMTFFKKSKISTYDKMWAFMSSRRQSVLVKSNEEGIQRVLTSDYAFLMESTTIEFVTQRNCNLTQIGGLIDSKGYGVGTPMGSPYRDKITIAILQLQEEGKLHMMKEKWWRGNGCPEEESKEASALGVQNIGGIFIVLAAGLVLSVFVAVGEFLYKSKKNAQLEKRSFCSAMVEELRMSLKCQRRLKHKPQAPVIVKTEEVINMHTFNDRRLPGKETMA

For O=c1[nH]c2cc(C(F)(F)F)c(/N=N/c3ccccc3)cc2n(CP(=O)(O)O)c1=O [ShuBQX-3], the inhibition at 5 µM (GluK2 receptor) was 49% and the inhibition at 5 µM [1] was 85 to 93%.
